{"source": "the supplement of paper PMC10307832", "test_in_all_cases": "relative viability (nuclei count vs DMSO), 5 days (fraction); higher = more cells survive", "key": {"Zosuquidar + Foretinib": {"compound": "O[C@@H](COc1cccc2ncccc12)CN1CCN([C@@H]2c3ccccc3[C@@H]3[C@H](c4ccccc42)C3(F)F)CC1 [Zosuquidar] + COc1cc2c(Oc3ccc(NC(=O)C4(C(=O)Nc5ccc(F)cc5)CC4)cc3F)ccnc2cc1OCCCN1CCOCC1 [Foretinib] (partner 0.25 µM)", "outline": "(§1)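 Lung cancer cell lines in 1536-well plates were dosed by pin tool the day after seeding, either with one drug alone or with a fixed anchor-drug dose plus five library-drug doses (not always all listed) in √10 steps. After 5 days, cells were fixed and their nuclei stained in one step (final 0.05% Triton X-100, 1% formaldehyde, 1 ug/ml Hoechst), then counted on 4× images. Relative viability is the nuclei count in treated wells divided by that in vehicle wells. Values are medians of duplicate plates.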"}, "Cabozantinib + Dasatinib": {"compound": "COc1cc2nccc(Oc3ccc(NC(=O)C4(C(=O)Nc5ccc(F)cc5)CC4)cc3)c2cc1OC [Cabozantinib] + Cc1nc(Nc2ncc(C(=O)Nc3c(C)cccc3Cl)s2)cc(N2CCN(CCO)CC2)n1 [Dasatinib] (partner 0.075 µM)", "outline": "as §1"}, "[1]": {"compound": "COc1cc2nccc(Oc3ccc(NC(=O)C4(C(=O)Nc5ccc(F)cc5)CC4)cc3)c2cc1OC [Cabozantinib] + Nc1ncn([C@H]2C[C@H](O)[C@@H](CO)O2)c(=O)n1 [Decitabine] (partner 2 µM)", "outline": "as §1"}, "Kobe2602 + Tozasertib": {"compound": "C1=CC(=CC=C1NC(=S)NNC2=C(C=C(C=C2[N+](=O)[O-])C(F)(F)F)[N+](=O)[O-])F [Kobe2602] + Cc1cc(Nc2cc(N3CCN(C)CC3)nc(Sc3ccc(NC(=O)C4CC4)cc3)n2)n[nH]1 [Tozasertib] (partner 0.1 µM)", "outline": "as §1"}}, "data": [{"cell line": "UMC-11", "values": [{"measurement": "relative viability", "setting": "Zosuquidar + Foretinib; first compound 0.01 µM", "result": 1.07}, {"measurement": "relative viability", "setting": "Zosuquidar + Foretinib; first compound 0.03162 µM", "result": 1.01}, {"measurement": "relative viability", "setting": "Zosuquidar + Foretinib; first compound 0.1 µM", "result": 1.19}, {"measurement": "relative viability", "setting": "Zosuquidar + Foretinib; first compound 0.3162 µM", "result": 1.12}, {"measurement": "relative viability", "setting": "Zosuquidar + Foretinib; first compound 1 µM", "result": 0.987}, {"measurement": "relative viability", "setting": "Cabozantinib + Dasatinib; first compound 0.02 µM", "result": 0.494}, {"measurement": "relative viability", "setting": "Cabozantinib + Dasatinib; first compound 0.06325 µM", "result": 0.492}, {"measurement": "relative viability", "setting": "Cabozantinib + Dasatinib; first compound 0.2 µM", "result": 0.453}, {"measurement": "relative viability", "setting": "Cabozantinib + Dasatinib; first compound 0.6325 µM", "result": 0.493}, {"measurement": "relative viability", "setting": "Cabozantinib + Dasatinib; first compound 2 µM", "result": 0.452}, {"measurement": "relative viability", "setting": "[1]; first compound 0.02 µM", "result": 0.654}, {"measurement": "relative viability", "setting": "[1]; first compound 0.06325 µM", "result": 0.597}, {"measurement": "relative viability", "setting": "[1]; first compound 0.2 µM", "result": 0.577}, {"measurement": "relative viability", "setting": "[1]; first compound 0.6325 µM", "result": 0.615}, {"measurement": "relative viability", "setting": "[1]; first compound 2 µM", "result": 0.554}, {"measurement": "relative viability", "setting": "Kobe2602 + Tozasertib; first compound 0.2 µM", "result": 0.215}, {"measurement": "relative viability", "setting": "Kobe2602 + Tozasertib; first compound 0.6325 µM", "result": 0.219}, {"measurement": "relative viability", "setting": "Kobe2602 + Tozasertib; first compound 2 µM", "result": 0.189}, {"measurement": "relative viability", "setting": "Kobe2602 + Tozasertib; first compound 6.325 µM", "result": 0.197}, {"measurement": "relative viability", "setting": "Kobe2602 + Tozasertib; first compound 20 µM", "result": 0.211}]}]}
